The source of these data is ChEMBL document CHEMBL1201862, “PubChem BioAssay data set” (2004).

Molecules are shown by their SMILES.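 All cell lines were grown in 96-well plates and treated with compound for 48 hours. The concentration for 50% growth inhibition is given as GI50.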 The source made the active and inactive calls. Cut-off read from the data, not from the text of the source: active = GI50 up to about 1.1 µM and inactive = higher.

Some test systems named below: 786-0; A549; COLO 205; HCC 2998; HOP-62; HOP-92; MCF7; MDA-MB-435; MOLT-4; NCI-H226; OVCAR-3; RPMI-8226; SF-539; SK-OV-3; SN12C; TK-10; UACC-62; UO-31; CCRF-CEM.
Holding throughout (assay): NCI anticancer screen, dose series, 48 h

For `CC(=O)OC1C2CCC3CC2C2(SCCS2)C31` (configuration not stated), the GI50 in the assay with 786-0 is > 100 µM (inactive); with A549, > 100 µM (inactive); with COLO 205 it was > 100 µM (inactive); in the assay on HCC 2998, > 100 µM (inactive); in the assay on HOP-62, 87.7 µM (inactive); with HOP-92 it was > 100 µM (inactive). The GI50 with MCF7, in the assay on MDA-MB-435, in the assay with MOLT-4, in the assay on NCI-H226, in the assay with OVCAR-3 and in the assay on RPMI-8226 was > 100 µM (inactive) in each case. The GI50 in the assay on SF-539 is 65.9 µM (inactive); in the assay on SK-OV-3 it was > 100 µM (inactive); in the assay with SN12C, > 100 µM (inactive); in the assay with TK-10, > 100 µM (inactive); in the assay on UACC-62 it was > 100 µM (inactive); in the assay with UO-31, > 100 µM (inactive).
Regarding `N=C1N=C(N)c2cc3c(cc21)SCCSCCCSCCS3`, the GI50 is 14.2 µM (inactive) in the assay on 786-0; 18.7 µM (inactive) in the assay with A549; 3.95 µM (inactive) in the assay on CCRF-CEM; 12 µM (inactive) with COLO 205; 9.62 µM (inactive) in the assay on HCC 2998; 13.6 µM (inactive) in the assay on HOP-62. The GI50 was 23.1 µM (inactive) in the assay on HOP-92; 27 µM (inactive) with MCF7; 11.1 µM (inactive) with MDA-MB-435; 10.2 µM (inactive) in the assay on MOLT-4; 20.5 µM (inactive) in the assay with NCI-H226; 11.8 µM (inactive) in the assay on OVCAR-3. The GI50 was > 10 µM (inactive) in the assay with RPMI-8226; 20.1 µM (inactive) with SF-539; 18.5 µM (inactive) in the assay with SK-OV-3; 14.6 µM (inactive) with SN12C; 15.1 µM (inactive) in the assay on TK-10; 22 µM (inactive) with UACC-62. Also, the GI50 in the assay with UO-31 was 49.9 µM (inactive).
Regarding `COC(=O)CN1c2nc(C#N)c(C#N)nc2N(CC(=O)OC)c2nc(C#N)c(C#N)nc21`, the GI50 is 2.09 µM (inactive) with 786-0; 12 µM (inactive) in the assay on A549; 1.01 µM (active) in the assay on CCRF-CEM; 1.26 µM (inactive) with COLO 205; 16.7 µM (inactive) with HCC 2998; 16.5 µM (inactive) in the assay on HOP-62. The GI50 is 1.87 µM (inactive) in the assay on HOP-92; 3.13 µM (inactive) in the assay with MCF7; 2.64 µM (inactive) in the assay with MDA-MB-435; 0.479 µM (active) in the assay on MOLT-4; 38.8 µM (inactive) in the assay with NCI-H226; 2.92 µM (inactive) with OVCAR-3. For the same molecule, the GI50 with RPMI-8226 is 1.87 µM (inactive); with SF-539 it was 7.11 µM (inactive); in the assay with SK-OV-3 it was 15.3 µM (inactive); with SN12C, 3.34 µM (inactive); with TK-10, 2.5 µM (inactive); in the assay on UACC-62 it was 5.45 µM (inactive). Also, the GI50 in the assay on UO-31 was 1.69 µM (inactive).
For the molecule `O=C(Cc1ccc2ccccc2c1)NCc1ccc(C(=O)NCCc2ccccc2)cc1`, the GI50 was > 100 µM (inactive) with 786-0; > 100 µM (inactive) with A549; 20.3 µM (inactive) with CCRF-CEM; > 100 µM (inactive) in the assay on COLO 205; > 100 µM (inactive) in the assay on HCC 2998; > 100 µM (inactive) in the assay with HOP-62. Further, the GI50 in the assay on HOP-92, in the assay on MCF7, in the assay on MDA-MB-435, in the assay with NCI-H226, in the assay with OVCAR-3 and in the assay with RPMI-8226 was > 100 µM (inactive) throughout. Also, the GI50 in the assay on SK-OV-3, with SN12C, with TK-10, in the assay with UACC-62 and in the assay with UO-31 was > 100 µM (inactive) in each case.
With `Clc1ccccc1-c1nc(-c2ccncc2)no1` [PIFEXOLE], the GI50 is > 100 µM (inactive) in the assay with 786-0; 69 µM (inactive) in the assay on A549; 40.8 µM (inactive) with COLO 205; 25.1 µM (inactive) in the assay on HCC 2998; > 100 µM (inactive) in the assay with HOP-62; > 100 µM (inactive) with HOP-92. For the same molecule, the GI50 was 30 µM (inactive) in the assay on MCF7; 48.6 µM (inactive) with MDA-MB-435; 26.8 µM (inactive) in the assay on MOLT-4; 98.9 µM (inactive) in the assay on NCI-H226; 44.9 µM (inactive) in the assay on OVCAR-3; 44.2 µM (inactive) in the assay with RPMI-8226. For the same molecule, the GI50 is > 100 µM (inactive) in the assay on SF-539; > 100 µM (inactive) with SK-OV-3; 38.2 µM (inactive) in the assay on SN12C; 42.8 µM (inactive) with TK-10; 73.6 µM (inactive) with UACC-62; 47.4 µM (inactive) in the assay with UO-31.
For the molecule `CC(C)C1C(=O)N2CCCC2C2(O)OC(NC(=O)C3C=C4c5cccc6[nH]cc(c56)CC4N(C)C3)(C(C)C)C(=O)N12` (configuration not stated), the GI50 is 17.9 µM (inactive) in the assay with 786-0; 20.7 µM (inactive) with A549; 24.7 µM (inactive) in the assay on CCRF-CEM; 20.7 µM (inactive) with COLO 205; 19.7 µM (inactive) in the assay with HCC 2998; 23.4 µM (inactive) in the assay on HOP-62. Further, the GI50 was 14.2 µM (inactive) with HOP-92; 35.8 µM (inactive) with MCF7; 29.2 µM (inactive) in the assay with MDA-MB-435; 17 µM (inactive) with MOLT-4; 17.9 µM (inactive) in the assay with OVCAR-3; 16.2 µM (inactive) in the assay on RPMI-8226. Moreover, the GI50 in the assay on SF-539 was 19.8 µM (inactive); in the assay with SN12C, 35.4 µM (inactive); in the assay on TK-10, 21.8 µM (inactive); in the assay on UACC-62 it was 18.1 µM (inactive); in the assay on UO-31, 13.5 µM (inactive).
Consider `COc1cc2ccc(C(C)NCC#N)cc2cc1OC` (configuration not stated), for which the GI50 was > 100 µM (inactive) with 786-0; > 100 µM (inactive) in the assay on A549; > 100 µM (inactive) in the assay with COLO 205; 36.4 µM (inactive) with HCC 2998; > 100 µM (inactive) in the assay with HOP-62; > 100 µM (inactive) in the assay with HOP-92. In addition, the GI50 in the assay on MCF7 is > 100 µM (inactive); in the assay with MDA-MB-435 it was > 100 µM (inactive); in the assay on MOLT-4 it was 28.8 µM (inactive); in the assay with NCI-H226 it was > 100 µM (inactive); in the assay on OVCAR-3, > 100 µM (inactive); in the assay with RPMI-8226, > 100 µM (inactive). The GI50 in the assay with SF-539, in the assay with SK-OV-3, in the assay with SN12C, in the assay with TK-10, with UACC-62 and in the assay on UO-31 was > 100 µM (inactive) throughout.
On to `CN(Cc1cnc2nc(N)nc(N)c2n1)c1ccc(C(=O)NC(CCS(=O)(=O)O)C(=O)O)cc1` (configuration not stated), for which the GI50 in the assay on 786-0 is 0.132 µM (active); with A549, 0.421 µM (active); with CCRF-CEM, 0.0312 µM (active); in the assay on COLO 205, > 72.3 µM (inactive); in the assay on HCC 2998 it was 0.916 µM (active); with HOP-62, 0.783 µM (active). The GI50 with HOP-92 is > 100 µM (inactive); with MCF7, 0.268 µM (active); in the assay on MDA-MB-435 it was 0.426 µM (active); in the assay with MOLT-4 it was 0.593 µM (active); in the assay on NCI-H226, 15.7 µM (inactive); in the assay with OVCAR-3, 3.46 µM (inactive). The GI50 was 0.824 µM (active) in the assay with SF-539; > 100 µM (inactive) in the assay with SK-OV-3; 4.57 µM (inactive) with SN12C; > 100 µM (inactive) in the assay with TK-10; 0.508 µM (active) in the assay with UACC-62; 2.72 µM (inactive) in the assay with UO-31.
Consider `CCCCSC1=N/C(=C\c2ccccc2O)C(=O)N1`, for which the GI50 with 786-0 was 69.7 µM (inactive); in the assay on A549 it was 20.7 µM (inactive); with COLO 205, > 100 µM (inactive); in the assay with HCC 2998 it was 53.2 µM (inactive); with HOP-62, > 100 µM (inactive); in the assay on HOP-92 it was 44 µM (inactive). In addition, the GI50 in the assay on MCF7 is 33.5 µM (inactive); in the assay on MDA-MB-435 it was > 100 µM (inactive); with MOLT-4, 68.9 µM (inactive); in the assay on NCI-H226, > 100 µM (inactive); in the assay with OVCAR-3, > 100 µM (inactive); in the assay with RPMI-8226, 75.5 µM (inactive). Further, the GI50 with SF-539 was 41.5 µM (inactive); in the assay with SK-OV-3 it was > 100 µM (inactive); with SN12C, 79.1 µM (inactive); in the assay on TK-10, 76.9 µM (inactive); in the assay on UACC-62, 44.3 µM (inactive); with UO-31, 21.6 µM (inactive).
Take `C=CCn1c(-c2cc(C(C)(C)C)c(O)c(C(C)(C)C)c2)cs/c1=N\C(P(=O)(O)O)P(=O)(O)O`: the GI50 in the assay with 786-0 is 36.8 µM (inactive); with A549 it was > 100 µM (inactive); in the assay on COLO 205, > 100 µM (inactive); in the assay on HCC 2998 it was > 100 µM (inactive); in the assay with HOP-62 it was > 100 µM (inactive); in the assay on HOP-92, > 100 µM (inactive). Further, the GI50 in the assay with MCF7, in the assay with MDA-MB-435, in the assay on MOLT-4, in the assay with NCI-H226, with OVCAR-3 and in the assay on RPMI-8226 was > 100 µM (inactive) throughout. For the same molecule, the GI50 in the assay with SF-539, in the assay on SK-OV-3, in the assay on SN12C, with TK-10 and with UO-31 was > 100 µM (inactive) in each case.
For the molecule `CCOC(=O)/C(C)=C\[C@@]1(C)O[C@@H](C)[C@@](C)(OC(C)=O)[C@@H]1OC(C)=O`, the GI50 was 63.5 µM (inactive) with 786-0; 45.4 µM (inactive) in the assay on A549; 33.5 µM (inactive) with CCRF-CEM; 30 µM (inactive) in the assay with COLO 205; 30.2 µM (inactive) in the assay with HCC 2998; 70.6 µM (inactive) in the assay on HOP-62. The GI50 in the assay with HOP-92 was 25.6 µM (inactive); with MCF7, 23 µM (inactive); in the assay with MDA-MB-435, 41.7 µM (inactive); in the assay on MOLT-4, 30 µM (inactive); with NCI-H226, 39.9 µM (inactive); in the assay with OVCAR-3 it was 33.4 µM (inactive). For the same molecule, the GI50 in the assay on RPMI-8226 is 51.8 µM (inactive); in the assay with SF-539 it was > 100 µM (inactive); with SK-OV-3 it was 75.7 µM (inactive); in the assay with SN12C, 57.1 µM (inactive); in the assay on TK-10 it was 78.9 µM (inactive); in the assay on UACC-62, 49.9 µM (inactive).
